Source: ChEMBL document CHEMBL2169878 (J Med Chem, 2012)
The source made the active and inactive calls. The calls are words filed in the database; no cut-off is given here.

Key:
[1] = target: Chloroquine resistance transporter (Plasmodium falciparum, UniProt Q9N623); assay: Inhibition of chloroquine-resistant Plasmodium falciparum Dd2 CRT expressed in Xenopus laevis oocyte assessed as inhibition of [3H]chloroquine uptake measured from 1 to 2 hrs
Plasmodium falciparum [2] = assay: Antiplasmodial activity against chloroquine-sensitive Plasmodium falciparum D10 infected in human RBC after 72 hrs by parasite lactate dehydrogenase assay; assay type: functional, organism-based; details: D10, 72 h
Plasmodium falciparum [3] = assay: Antiplasmodial activity against chloroquine-resistant Plasmodium falciparum W2 infected in human RBC after 72 hrs by parasite lactate dehydrogenase assay; assay type: functional, organism-based; details: W2, 72 h
Plasmodium falciparum [4] = assay: Antiplasmodial activity against chloroquine-sensitive Plasmodium falciparum NF54 infected in human erythrocytes assessed as inhibition of [3H]hypoxanthine incorporation incubated for 48 hrs prior to [3H]hypoxanthine addition measured after 48 hrs by liquid scintillation counting; assay type: functional, organism-based
Plasmodium falciparum [5] = assay: Antiplasmodial activity against chloroquine-resistant Plasmodium falciparum K1 infected in human erythrocytes assessed as inhibition of [3H]hypoxanthine incorporation incubated for 48 hrs prior to [3H]hypoxanthine addition measured after 48 hrs by liquid scintillation counting; assay type: functional, organism-based
[6] = target: T1, Chloroquine resistance transporter (Plasmodium falciparum) (UniProt Q9N623); assay: Inhibition of chloroquine-resistant Plasmodium falciparum Dd2 CRT expressed in Xenopus laevis oocyte assessed as inhibition of [3H]chloroquine uptake at 100 uM measured from 1 to 2 hrs
T1 sequence (whole entry): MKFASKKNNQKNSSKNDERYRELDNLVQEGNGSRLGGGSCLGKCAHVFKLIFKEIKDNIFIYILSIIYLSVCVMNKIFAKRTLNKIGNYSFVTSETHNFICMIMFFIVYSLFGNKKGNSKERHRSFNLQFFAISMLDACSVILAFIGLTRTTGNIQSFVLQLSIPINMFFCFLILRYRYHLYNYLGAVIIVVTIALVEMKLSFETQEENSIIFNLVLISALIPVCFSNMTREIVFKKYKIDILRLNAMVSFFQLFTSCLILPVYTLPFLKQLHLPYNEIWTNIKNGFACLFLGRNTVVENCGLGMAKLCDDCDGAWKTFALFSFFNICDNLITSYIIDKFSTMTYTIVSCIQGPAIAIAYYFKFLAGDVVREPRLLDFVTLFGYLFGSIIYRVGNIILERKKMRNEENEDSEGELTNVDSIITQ

Salmonella typhimurium [7] = assay: Mutagenicity against Salmonella typhimurium TA98 assessed as revertants at 24 uM incubated for 90 mins followed by drug washout measured after 2 days relative to positive control; assay type: toxicity, organism-based; details: salmonella enterica subsp. enterica serovar typhimurium, 1.5 h
Salmonella typhimurium [8] = assay: Mutagenicity against Salmonella typhimurium TA98 assessed as revertants at 16 uM incubated for 90 mins followed by drug washout measured after 2 days relative to positive control; assay type: toxicity, organism-based; details: salmonella enterica subsp. enterica serovar typhimurium
Salmonella typhimurium [9] = assay: Mutagenicity against Salmonella typhimurium TA98 assessed as revertants at 40 uM incubated for 90 mins followed by drug washout measured after 2 days relative to positive control; assay type: toxicity, organism-based; details: salmonella enterica subsp. enterica serovar typhimurium
Salmonella typhimurium [10] = assay: Mutagenicity against Salmonella typhimurium TA98 assessed as revertants at 80 uM incubated for 90 mins followed by drug washout measured after 2 days relative to positive control; assay type: toxicity, organism-based; details: salmonella enterica subsp. enterica serovar typhimurium, 1.5 h
Salmonella typhimurium [11] = assay: Mutagenicity against Salmonella typhimurium TA100 assessed as revertants at 2 uM incubated for 90 mins followed by drug washout measured after 2 days relative to positive control; assay type: toxicity, organism-based; details: salmonella enterica subsp. enterica serovar typhimurium
Salmonella typhimurium [12] = assay: Mutagenicity against Salmonella typhimurium TA100 assessed as revertants at 4 uM incubated for 90 mins followed by drug washout measured after 2 days relative to positive control; assay type: toxicity, organism-based; details: salmonella enterica subsp. enterica serovar typhimurium, 1.5 h
Salmonella typhimurium [13] = assay: Mutagenicity against Salmonella typhimurium TA100 assessed as revertants at 24 uM incubated for 90 mins followed by drug washout measured after 2 days relative to positive control; assay type: toxicity, organism-based; details: salmonella enterica subsp. enterica serovar typhimurium
Salmonella typhimurium [14] = assay: Mutagenicity against Salmonella typhimurium TA100 assessed as revertants at 16 uM incubated for 90 mins followed by drug washout measured after 2 days relative to positive control; assay type: toxicity, organism-based; details: salmonella enterica subsp. enterica serovar typhimurium
Salmonella typhimurium [15] = assay: Mutagenicity against Salmonella typhimurium TA100 assessed as revertants at 40 uM incubated for 90 mins followed by drug washout measured after 2 days relative to positive control; assay type: toxicity, organism-based; details: salmonella enterica subsp. enterica serovar typhimurium
Salmonella typhimurium [16] = assay: Mutagenicity against Salmonella typhimurium TA100 assessed as revertants at 80 uM incubated for 90 mins followed by drug washout measured after 2 days relative to positive control; assay type: toxicity, organism-based; details: salmonella enterica subsp. enterica serovar typhimurium
Plasmodium berghei [17] = assay: Antimalarial activity against Plasmodium berghei ANKA expressing GFP infected in mouse assessed as reduction in parasitemia at 100 mg/kg, po administered 24 hrs post-infection measured 48 hrs post-dosing by flow cytometric analysis; assay type: functional; design: scale not given: the % may be the effect or the level left
Plasmodium berghei [18] = assay: Antimalarial activity against Plasmodium berghei ANKA expressing GFP infected in mouse assessed as reduction in parasitemia at 30 mg/kg, po administered 24 hrs post-infection measured 48 hrs post-dosing by flow cytometric analysis; assay type: functional; design: scale not given: the % may be the effect or the level left
Plasmodium berghei [19] = assay: Antimalarial activity against Plasmodium berghei ANKA expressing GFP infected in mouse assessed as mean survival days at 100 mg/kg, po administered 24 hrs post-infection (reference value: 6 to 7 days); assay type: functional
Plasmodium berghei [20] = assay: Antimalarial activity against Plasmodium berghei ANKA expressing GFP infected in mouse assessed as mean survival days at 30 mg/kg, po administered 24 hrs post-infection (reference value: 6 to 7 days); assay type: functional
Plasmodium berghei [21] = assay: Antimalarial activity against Plasmodium berghei ANKA expressing GFP infected in mouse assessed as cure from infection at 100 mg/kg, po administered 24 hrs post-infection measured on day 30; assay type: functional, organism-based; design: dose 100 mg/kg
Plasmodium berghei [22] = assay: Antimalarial activity against Plasmodium berghei ANKA expressing GFP infected in mouse assessed as cure from infection at 30 mg/kg, po administered 24 hrs post-infection measured on day 30; assay type: functional, organism-based; design: dose 30 mg/kg
[23] = Cytotoxicity against mouse NIH3T3 cells after 24 hrs by neutral red dye uptake assay; assay type: cell-based; details: read-out: TC50
[24] = Cytotoxicity against human HepG2 cells after 24 hrs by neutral red dye uptake assay; assay type: cell-based; details: read-out: TC50
Salmonella typhimurium [25] = assay: Mutagenicity against Salmonella typhimurium TA98 assessed as revertants at 2 uM incubated for 90 mins followed by drug washout measured after 2 days relative to positive control; assay type: toxicity, organism-based; details: salmonella enterica subsp. enterica serovar typhimurium, 1.5 h
Salmonella typhimurium [26] = assay: Mutagenicity against Salmonella typhimurium TA98 assessed as revertants at 4 uM incubated for 90 mins followed by drug washout measured after 2 days relative to positive control; assay type: toxicity, organism-based; details: salmonella enterica subsp. enterica serovar typhimurium
Plasmodium falciparum [27] = assay: Resistance ratio of IC50 for chloroquine-resistant Plasmodium falciparum W2 to IC50 for chloroquine-sensitive Plasmodium falciparum D10; assay type: functional
Plasmodium falciparum [28] = assay: Resistance ratio of IC50 for chloroquine-resistant Plasmodium falciparum K1 to IC50 for chloroquine-sensitive Plasmodium falciparum NF54; assay type: functional

| SMILES | IC50 (Plasmodium falciparum [2]) [nM] | IC50 (Plasmodium falciparum [3]) [nM] | IC50 (Plasmodium falciparum [4]) [nM] | IC50 (Plasmodium falciparum [5]) [nM] | inhibition [6] | further results |
| --- | --- | --- | --- | --- | --- | --- |
| CC(C)(C)NC(=O)[C@@H]1C[C@@H]2CCCC[C@@H]2CN1C[C@@H](O)[C@H](Cc1ccccc1)NC(=O)[C@H](CC(N)=O)NC(=O)c1ccc2ccccc2n1 |  |  |  |  |  | IC50 [1]: 13000 nM |
| Clc1ccc(C(c2ccc(Cl)cc2)(c2ccc(CN3CCCC3)cc2)N2CCN(c3ccnc4cc(Cl)ccc34)CC2)cc1 | 277 | 582 | 91 | 92 | 42% |  |
| COc1ccc(CCN(C)CCCC(C#N)(c2ccc(OC)c(OC)c2)C(C)C)cc1OC (stereo not drawn) |  |  |  |  | 74% |  |
| Clc1cccc(C(Nc2ccnc3cc(Cl)ccc23)c2ccc(CN3CCOCC3)c(Cl)c2)c1 (racemic) | 442 | 277 | 47 | 107 |  |  |
| COc1ccc2nccc(NC(c3cccc(Cl)c3)c3ccc(CN4CCCC4)c(F)c3)c2c1 (racemic) | 41 | 101 |  |  |  |  |
| COc1ccc2nccc(NC(c3cccc(Cl)c3)c3ccc(CN4CCOCC4)c(Cl)c3)c2c1 (racemic) | 198 | 229 | 81 | 114 |  |  |
| FC(F)(F)c1ccc2c(NC(c3cccc(Cl)c3)c3ccc(CN4CCCC4)c(Cl)c3)ccnc2c1 (racemic) | 74 | 111 | 34 | 46 |  |  |
| Clc1ccc(C(Nc2ccnc3cc(Cl)ccc23)c2ccc(CN3CCCC3)c(Cl)c2)cc1 (racemic) | 8.4 | 28 |  |  | 70% | Activity (Salmonella typhimurium [7]): 10%; Activity (Salmonella typhimurium [8]): 3%; Activity (Salmonella typhimurium [9]): 10%; Activity (Salmonella typhimurium [10]): 0%; Activity (Salmonella typhimurium [11]): 4%; Activity (Salmonella typhimurium [12]): 3%; Activity (Salmonella typhimurium [13]): 4%; Activity (Salmonella typhimurium [14]): 1%; Activity (Salmonella typhimurium [15]): 8%; Activity (Salmonella typhimurium [16]): 1%; Activity (Plasmodium berghei [17]): 99.5%; Activity (Plasmodium berghei [18]): 99.4%; MSD (Plasmodium berghei [19]): 14 days; MSD (Plasmodium berghei [20]): 7.7 days; Activity (Plasmodium berghei [21]): inactive; Activity (Plasmodium berghei [22]): inactive; CC50 at 24 h [23]: 16000 nM; CC50 at 24 h [24]: 4000 nM; Activity (Salmonella typhimurium [25]): 17%; Activity (Salmonella typhimurium [26]): 0% |
| COc1ccc2nccc(NC(c3ccc(Cl)cc3)c3ccc(CN4CCCC4)c(Cl)c3)c2c1 (racemic) | 24 | 76 |  |  |  |  |
| COc1ccc2nccc(NC(c3ccc(Cl)cc3)c3ccc(CN4CCCC4)c(F)c3)c2c1 (racemic) | 58 | 69 | 25 | 33 |  |  |
| COc1cc(C(Nc2ccnc3cc(Cl)ccc23)c2ccc(Cl)cc2)ccc1CN1CCCC1 (racemic) | 31 | 48 |  |  |  |  |
| COc1ccc2nccc(NC(c3ccc(Cl)cc3)c3ccc(CN4CCNCC4)cc3)c2c1 (racemic) | 67 | 163 | 21 | 58 |  | Ratio IC50 (Plasmodium falciparum [27]): 2.4; Ratio IC50 (Plasmodium falciparum [28]): 2.8 |
| CN1CCN(Cc2ccc(C(Nc3ccnc4cc(Cl)ccc34)c3ccc(Cl)cc3)cc2)CC1 (racemic) | 21 | 42 |  |  | Active | Ratio IC50 (Plasmodium falciparum [27]): 2 |
| Clc1ccc(C(Nc2ccnc3cc(Cl)ccc23)c2ccc(CN3CCN(Cc4ccccc4)CC3)cc2)cc1 (racemic) | 163 | 790 |  |  |  | Ratio IC50 (Plasmodium falciparum [27]): 4.8 |
| Clc1ccc(C(Nc2ccnc3cc(Cl)ccc23)c2ccc(CN3CCN(Cc4ccc(C(Nc5ccnc6cc(Cl)ccc56)c5ccc(Cl)cc5)cc4)CC3)cc2)cc1 (racemic) | 190 | 98 | 89 | 56 |  | Ratio IC50 (Plasmodium falciparum [27]): 0.5; Ratio IC50 (Plasmodium falciparum [28]): 0.6 |
| Clc1ccc(C(c2ccc(CN3CCCC3)cc2)N2CCN(c3ccnc4cc(Cl)ccc34)CC2)cc1 (racemic) | 631 | 735 | 88 | 156 | 58% |  |
| Clc1cccc(C(Nc2ccnc3cc(Cl)ccc23)c2ccc(CN3CCN(c4ccnc5cc(Cl)ccc45)CC3)c(Cl)c2)c1 (racemic) | 104 | 58 | 83 | 10 |  |  |
| Clc1cccc(C(Nc2ccnc3cc(Cl)ccc23)c2ccc(CN3CCCC3)c(Cl)c2)c1 (racemic) | 57 | 50 | 13 | 19 |  |  |
| Fc1cc(C(Nc2ccnc3cc(Cl)ccc23)c2cccc(Cl)c2)ccc1CN1CCCC1 (racemic) | 9 | 25 |  |  | 70% |  |
| Clc1ccc(C(Nc2ccnc3cc(Cl)ccc23)c2ccc(CN3CCCC3)cc2)cc1 (racemic) |  |  |  |  | 70% | Ratio IC50 (Plasmodium falciparum [27]): 1.6; Ratio IC50 (Plasmodium falciparum [28]): 1.1 |
| Clc1ccc(C(c2ccccc2)(c2ccc(CN3CCCC3)cc2)n2ccnc2)cc1 (racemic) |  |  |  |  | Active |  |
| Clc1ccccc1C(c1ccccc1)(c1ccccc1)n1ccnc1 [CLOTRIMAZOLE] |  |  |  |  |  | CC50 at 24 h [23]: > 48000 nM; CC50 at 24 h [24]: > 48000 nM |
